Read-outs that look alike come from different tables or passages of the source. Non-standard residues stand in square brackets, D forms with d. Residues, ends and D or L forms follow the SMILES beside them.
Experiments:
[1] = system: vancomycin-resistant Enterococus faecalis (VRE)(ATCC 51575); type: cell-based, Enterococcus faecalis; parameters: key to VRE (in vitro activity): peptide concentration in μg/ml (broth dilution assay); details: for VRE (in vitro activity): Table 9, media a: AM-3
Summary of the method: (§1)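 Broth macro- or microdilution MIC per NCCLS M7-A4. Peptides were serially 2-fold diluted in 5% DMSO/9% aqueous sucrose, about 400–2 μg/ml (dilution-series concentrations). Overnight cultures were diluted 4000-fold to an inoculum of about 2.5×10^5 cfu/ml.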

E. coli JM109(DE3) = type: cell-based, Escherichia coli
Summary of the method: as §1

murine red blood cells = test: Red blood cell hemolysis; type: cell-based, mouse; parameters: RBC Hemolysis (HD50): unit not given here
Summary of the method: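 Hemolysis read as A560 of supernatant, scaled between saline (0%) and 1% Triton X-100 (100%) controls; peptides were serially diluted onto 5% murine red cells in saline plus 10% FBS and incubated 30 min at 37° C.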

[2] = system: Bacillus cereus ATCC 11778; type: cell-based
Summary of the method: as §1

[3] = trypsin, α-chymotrypsin, subtilisin, blood plasma; RP-HPLC over 24 h
Method: Cyclic peptides having SEQ ID NO:13, 18, 26, and 29 were assayed for proteolytic susceptibility.

[4] = system: S. aureus (MRSA) ATCC 33591; type: cell-based, Staphylococcus aureus; details: for MRSA (in vitro activity): Table 9, media a: anti-microbial media-3 (AM-3)
Summary of the method: as §1

[5] = system: S. aureus (MRSA) (ATCC No. 33591); test: Time-killing curve, S. aureus MRSA ATCC 33591; type: cell-based, Staphylococcus aureus; details: FIG. 8a; at MIC concentrations
Method: The speed at which several of the cyclic peptides of the invention kill E. coli JM 109 (DE3), Enterococcus faecium SP 180 and S. aureus (MRSA) (ATCC No. 33591 and 33592) was further tested at room temperature and/or at 37° C. A lower temperature tends to enrich the bacterial cultures for mature bacteria because the bacteria are not growing quickly. […] The presence or absence of immature bacteria in the culture may influence the rate at which the bacteria are killed, because immature bacteria tend to be more susceptible to many forms of antibiotics.
To generate the data shown in FIG. 8a, the log of the number of colony forming units (cfu) per ml of culture was determined as a function of time after treatment of S. aureus (MRSA) (ATCC No. 33591) with cyclo[KHLWLW] (closed circles), cyclo[KRKWLWLW] (closed triangles), and cyclo[KQRWLWLW] (open squares) at MIC concentrations. […] The reduction in cfu count was greater than 3 log units. Cyclic peptide cyclo[KHLWLW] killed effectively all S. aureus (MRSA) within about 60 minutes.

[6] = system: Streptococcus pneumoniae (ATCC 6301); type: cell-based
Summary of the method: as §1

[7] = system: S. aureus MRSA (ATCC 33591); test: Mouse peritonitis model, MRSA protection; type: in vivo, mice; parameters: PD50 MRSA: unit not given here
Method: Bacteria were prepared for in vivo using procedures similar to those as previously described. […] S. aureus MRSA bacteria (ATCC 33591) were grown at 37° C. in 5 mL of Antibiotic Medium-3 (AM-3, Difco Laboratories) with agitation for 12 hours to a stationary phase. Cells were collected by centrifugation, washed twice with saline solution and resuspended in about 10 mL of saline to an O.D.650 of 1.2. This suspension was diluted ten times in a sterilized 5% mucin (Difco) in saline to a concentration of 2-4×10^7 cfu/ml (actual inoculum size was verified by colony counts on agar plates).
Peptides of the invention were tested in mice to ascertain whether they would protect the mice against bacterial infection using procedures similar to those described in N. Frimodt-Moller et al., The Mouse Peritonitis/Sepsis Model, in Zak et al. (eds.) HANDBOOK OF ANIMAL MODELS OF INFECTION 127-37 (Academic Press 1999).
Male Balb-C mice (6 weeks old, approximately 20 g) were used in the study. Staphylococcus aureus MRSA bacteria (ATCC 33591) were grown at 37° C. with agitation for 12 hours to a stationary phase. Cells were collected by centrifugation, washed twice with saline and resuspended to an O.D.650 of 1.4. This suspension was diluted ten times with saline and resuspended to a concentration of 3-5×10^7 cfu/ml. For each peptide five groups of eight mice per group were infected I.P. with 0.5 ml of the above Staphylococcus aureus MRSA preparation (lethal dose). Forty-five minutes to an hour after infection, each group was treated with a different dose of peptide and a control group received vehicle only. Mice were monitored for fourteen days; death was defined as the end point. Median protecting doses (PD50) were calculated following the Reed and Muench method. […] For IV and SQ models peptide was administered immediately after IP infection.

Toxicity studies in mice = type: in vivo; parameters: LD50(IP) / LD50(IV): unit not given here
Method: Peptides were tested for toxicity in vivo using procedures similar to those described previously. […] Mice (male Balb-C) in groups of 4-8 were given via IV, IP or SQ single bolucdoses of peptides and monitored for 14 days. Toxicity of sublethal doses was assessed based on the behavior and appearance of the mice after peptide administration compared to control mice receiving only vehicle. Signs of acute toxicity included lack of activity, red feet and tail, faster breathing. Death was defined as the end point for lethal doses of peptides.
Toxicology Studies: Initial toxicology studies in mice were conducted to evaluate various routes of drug administration, maximum tolerable dose, and blood and tissue toxicity. Two mice in each dose study were injected with a bolus intravenous (IV), intraperitoneal (IP), or subcutaneous (SQ) doses of peptide SEQ ID NO:8, 18, and 26. For each study, two control animals received vehicle only and no peptide. […] Signs of acute toxicity included any one of the following: lack of activity, red feet and tail, or faster breathing. […] A regimen of […] of peptide SEQ ID NO:18 for three consecutive days was administered to two mice IP and two mice SQ.

[8] = Proton transport in vesicles with pH gradient; details: vesicles pH 6.5 inside, pH 5.5 outside
Method: Formation of supramolecular structures that can permeabilize membranes was also inferred from proton transport activity. Vesicles were prepared having pH 6.5 inside and pH 5.5 in the outside bulk solution. The collapse of the imposed pH gradient in these vesicles, upon formation of the putative transmembrane channel structure, was studied by monitoring the fluorescence intensity of an entrapped pH-sensitive dye. (V. E. Carmichael et al, in J.Am. Chem. Soc. (1989), vol. 111, pages 767-769). Addition of peptide cyclo[-(Trp-D-Leu)3-Gln-D-Leu-]
Unilamellar vesicles were prepared by the reverse-phase evaporation using DPPC, OPPC, cholesterol in the ratio of 1:1:2 in a solution containing 5(6)-carboxyfluorescein (20 mM in phosphate/saline buffer: 137 mM NaCl, 2.6 mM KCI, 6.4 mM Na2HPO4, 1.4 mM KH2PO4, pH 6.5) according to the method of F. Szoka et al. in Proc. Natl. Acad. Sci. USA (1978), vol. 75, pages 4194-4198. Liposomes were then sized by multiple extrusions through Nucleopore® polycarbonate membranes (10 times, 50 psi, using 0.8 and 2×0.4 micron filter stacks) and the untrapped 5(6)-carboxyfluorescein was removed by size exclusion chromatography (Sephadex G-25 column 1×30 cm) using the same phosphate/saline buffer according to the method of F. Olson et al. in Biochim. […] Vesicles formed in this way are approximately 150 nanometer in diameter as determined by electron microscopy. […] In each experiment, […] of the stock vesicle solution (3.5×10^−3 M in phospholipids) was added to pH 5.5 buffer (1.3 ml, 137 mM NaCl, 2.6 mM KCl, 6.4 Na2HPO4, 1.4 KH2PO4) and placed in a 1 cm quartz cuvette inside a stirring thermojacketed sample holder of the fluorescence instrument and equilibrated at 25° C. for 15 minutes with gentle stirring. To the cuvette, through an injector port, […] of the peptide dissolved in DMSO was added with continuous fluorescence monitoring at 520 nm (excitation at 470 nm). The observed data were then normalized for comparison into the fractional change in fluorescence ((I0-It)/(I0-I∞)) (V. E. Carmichael et al, in J.Am. Chem. Soc. (1989), vol. 111, pages 767-769)).

Row | Compound | VRE (in vitro activity) [1] | proteolytic stability [3] | MRSA (in vitro activity) [4] | VRE MIC ([1]; ATCC 51575) [µg/mL] | RBC Hemolysis (HD50) (murine red blood cells) | S. pneum. MIC [6] [µg/mL] | B. cerius MIC [2] [µg/mL] | MRSA MIC ([4]; ATCC 33591) [µg/mL] | S. aureus (MRSA) MIC ([4]; ATCC 33591) [µg/mL] | proton / ion transport activity [8] | also measured
1 | CC(C)C[C@H]1NC(=O)[C@H](Cc2c[nH]c3ccccc23)NC(=O)[C@@H](CCCCN)NC(=O)[C@H](Cc2c[nH]cn2)NC(=O)[C@@H](CO)NC(=O)[C@H](Cc2c[nH]c3ccccc23)NC(=O)[C@@H](CC(C)C)NC(=O)[C@H](Cc2c[nH]c3ccccc23)NC1=O [SEQ ID NO:13] (cyclo([dS]H[dK]W[dL]W[dL]W)) | 40 | stable | 10 |  |  |  |  |  |  |  | VRE MIC ([1]; Table 10, ATCC 51575): 40 µg/mL; E. coli MIC (E. coli JM109(DE3); Table 6, JM109(DE3)): 100 µg/mL; RBC Hemolysis (HD50) (murine red blood cells; Table 9): 35; B. cerius MIC ([2]; Table 10): 12 µg/mL; S. aureus (MRSA) MIC ([4]; Table 6, ATCC 33591): 10 µg/mL; MRSA MIC ([4]; Table 10, ATCC 33591): 10 µg/mL
2 | CC(C)C[C@H]1NC(=O)[C@H](Cc2c[nH]c3ccccc23)NC(=O)[C@@H](CCCCN)NC(=O)[C@H](CCCNC(=N)N)NC(=O)[C@@H](CCCCN)NC(=O)[C@H](Cc2c[nH]c3ccccc23)NC(=O)[C@@H](CC(C)C)NC(=O)[C@H](Cc2c[nH]c3ccccc23)NC1=O [SEQ ID NO:19, D-Lys-Arg-D-Lys-Trp-D-Leu-Trp-D-Leu-Trp] (cyclo([dK]R[dK]W[dL]W[dL]W)) | 8 |  | 15 | 8 | 50 | 5 | 3 | 15 | 10 |  | time to kill effectively all S. aureus (MRSA) [5]: within about five minutes
3 | CC(C)C[C@H]1NC(=O)[C@H](CCCCN)NC(=O)[C@@H](CCCCN)NC(=O)[C@H](Cc2c[nH]c3ccccc23)NC(=O)[C@@H](CC(C)C)NC(=O)[C@H](Cc2c[nH]c3ccccc23)NC1=O [SEQ ID NO:26, cyclo-(D-Lys-Lys-D-Leu-Trp-D-Leu-Trp)] (cyclo(K[dL]W[dL]W[dK])) | 40 | stable | 10 | 40 | 80 | 30 | > 10 | 10 | 10 |  | In Vitro VREF MIC ([1]; ATCC 51575): 40 µg/mL; E. coli MIC (E. coli JM109(DE3); JM109): 17 µg/mL; In Vitro RBC MIC (murine red blood cells): 80 µg/mL; PD50 S. aureus MRSA infection [7]: 15 mg/kg; PD50 protective dose where 50% of animals survive ([7]; FIG. 6, mice challenged with lethal doses of MRSA): 10 ± 2 mg/kg; PD50 MRSA ([7]; Table 12, male Balb-C mice, IP infection, IP peptide): 15; In Vivo MRSA PD50 ([7]; Table 13): 15 mg/kg; protection of mice from MRSA infection ([7]; single bolus IP dose of appropriate amount, 45-60 min after infection): completely protect; In Vitro MRSA MIC ([4]; ATCC 33591): 10 µg/mL; LD50(IP) (Toxicity studies in mice; Table 12, male Balb-C mice): 75; LD50(IV) (Toxicity studies in mice; Table 12, male Balb-C mice): 24; LD50 at 14 days (Toxicity studies in mice; male, Balb-C, mouse, in vivo, ip, Table 13): 75 mg/kg; signs at highest dose (Toxicity studies in mice; mice, IP 50 mg/kg): signs of acute toxicity that were not observable after one hour; tolerability (Toxicity studies in mice; mice, IP, maximum tested dose 50 mg/kg): tolerated up to the maximum tested IP dose
4 | cyclo[-(Gln-D-Leu)4] |  |  |  |  |  |  |  |  |  | does not display any ion transport activity | 
5 | cyclo[-(Trp-D-Leu)3-Gln-D-Leu-] [SEQ ID NO:2] |  |  |  |  |  |  |  |  |  | rapid collapse of the pH gradient | 
6 | cyclo[-(^MeN-D-Ala-Phe)4-] |  |  |  |  |  |  |  |  |  | does not promote proton transport activity | 
